Read-outs that look alike come from different tables or passages of the source.
Columns and labels:
[1] = test system: LPS from E. coli serotype 0111:B4; experiment: LPS neutralization assay (Limulus amoebocyte lysate, QCL-1000); format: biochemical; details: read-out: IC50 values (μM) for LPS binding, E. coli 0111:B4
Method in brief: (§1)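 LPS (0.04 units per strain) is mixed with compound and Limulus amoebocyte lysate. Proenzyme activation is then followed by chromogenic substrate cleavage and pNA absorbance at 405-410 nm. Dose-response curves are fit sigmoidally to give IC50.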

[2] = test system: LPS from E. coli serotype 055:B5; experiment: as above; format: biochemical
Method in brief: (§2)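 Absorbance at 405-410 nm tracks pNA released from a synthetic substrate by LPS-activated lysate enzyme. Compounds were titrated against 0.04 units of each LPS. IC50 values derive from sigmoidal curve fitting.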

[3] = test system: B16 melanoma; experiment: B16 melanoma tumor growth model in mice; format: in vivo; details: tumor-bearing mice
Experimental: Female athymic nude mice (nu/nu, 5-6 weeks old) were used. These mice were purchased from the National Cancer Institute and allowed to acclimatize to local conditions for at least one week. Animals were given water and standard chow ad libitum, and were kept on a 12-hour light/dark cycle. All experiments were approved by the University of Minnesota Research Animal Resources ethical committee. Mice were randomized and split into three groups: 1) human serum albumin (10 mg/kg/day), 2) βpep-25 (10 mg/kg/day) and 3) peptide mimetic agent (5 mg or 10 mg/kg/day). Test compounds were diluted in DMSO and administered using osmotic mini-pumps (Durect, Cupertino, Calif.). Exponentially growing MA148 human ovarian carcinoma cells, kindly provided by Prof. Ramakrishnan (R. P. Dings et al., Cancer Res., 63, 382-385 (2003)) or B16 mouse melanoma cells were cultured in RPM1 1640 medium (Life Technologies, Grand Island, N.Y.). […]
Tumor volume was determined by measuring the diameters of tumors using calipers (Scienceware, Pequannock, N.J.) using the equation for the volume of a spheroid: (a^2×b×[…])/6, where ‘a’ is the width and ‘b’ the length or the tumor. […] Tumor weights correlated well with tumor volumes calculated in this way. Statistical differences in tumor growth curves were analyzed using the two-way ANOVA test.

[4] = test system: LPS from S. typhimurium; experiment: LPS neutralization assay (Limulus amoebocyte lysate, QCL-1000); format: biochemical, Salmonella typhimurium; details: read-out: IC50 values (μM) for LPS binding, Salmonella
Method in brief: as §1

[5] = test system: LPS from S. marcascens; experiment: as above; format: biochemical, Serratia marcascens; details: read-out: IC50 values (μM) for LPS binding, Serratia
Method in brief: as §1

[6] = test system: B16F10 tumor cells; experiment: Proliferation of B16F10 tumor cells; format: cell-based, murine
[7] = Toxicity assays in tumor-bearing mice: behavior, body weight, organ morphology; format: in vivo; details: for signs of toxicity (behavior, weight gain, hematocrit), in words: all in vivo tumor experiments
Experimental: As an indirect measurement of general toxicity, body weights of mice were monitored twice weekly, using a digital balance (Ohaus Florham, N.J.). To determine hematocrit levels, blood samples were extracted by tail vein bleedings one day after terminating treatment, and blood was collected in heparinized micro-hematocrit capillary lubes (Fisher Pittsburgh, Pa.). Samples were spun down for 10 minutes in a micro-hematocrit centrifuge (Clay-Adams; NY), and the amount of hematocrit was determined using an international microcapillary reader (IEC; Needham, Mass.).

[8] = test system: LPS from K. pneumoniae; experiment: LPS neutralization assay (Limulus amoebocyte lysate, QCL-1000); format: biochemical, Klebsiella pneumoniae; details: read-out: IC50 values (μM) for LPS binding, Klebsiella
Method in brief: as §2

[9] = Table 3, errors estimated ±30%, read-out: IC50 values (μM) for LPS binding, E. coli 055:B5

In the case of “5,11,17,23-Tetra-tert-butyl-25,27-bis(2-guanidinoethoxy)-26,28-dihydroxy calix[4]arene trifluoroacetic acid salt [Compound 27]”, the IC50 ([1]; Table 3, errors estimated ±30%) is reported as > 5 µM, the IC50 [2, 9] is reported as > 5 µM and the “B16 tumor growth (in words)” value [3] is reported as “significantly inhibited”. For the same compound, the IC50 ([4]; Table 3, errors estimated ±30%) was 4.4 µM, the IC50 ([5]; Table 3, errors estimated ±30%) was > 5 µM and the IC50 ([6]; read-out: IC50 against B16F10 tumor cells) was 10 µM. The “drop of body weights during treatment” value ([7]; B16 model, i.p. administration) was “about 5%”, the “signs of toxicity (behavior, weight gain, hematocrit), in words” value [7] was “did not generally show signs of toxicity” and the IC50 ([8]; Table 3, errors estimated ±30%) was > 5 µM.
In the case of `CN(C)CCNC(=O)COc1c2cccc1Cc1cccc(c1OCC(=O)NCCN(C)C)Cc1cccc(c1OCC(=O)NCCN(C)C)Cc1cccc(c1OCC(=O)NCCN(C)C)C2` [Compound 40], the IC50 ([1]; Table 2) is reported as > 5 µM, the IC50 ([1]; Table 3, errors estimated ±30%) is reported as > 5 µM and the IC50 ([2]; Table 2, read-out: IC50 values (μM) for LPS binding, E. coli 055:B4) is reported as 3.4 µM. The IC50 [2, 9] was 3.4 µM, the “B16 tumor growth (in words)” value [3] was “significantly inhibited” and the IC50 ([4]; Table 2) was > 5 µM. The IC50 ([4]; Table 3, errors estimated ±30%) was > 5 µM, the IC50 ([5]; Table 2) was > 5 µM and the IC50 ([5]; Table 3, errors estimated ±30%) was > 5 µM. For the same compound, the “IC50 against B16F10 tumor cells” value [6] was “neither demonstrated activity”, the “signs of toxicity (behavior, weight gain, hematocrit), in words” value [7] was “did not generally show signs of toxicity” and the IC50 ([8]; Table 2) was 1.5 µM. It also gave an IC50 ([8]; Table 3, errors estimated ±30%) of 1.5 µM.

From patent US8642656B2, “Calixarene-based peptide conformation mimetics, methods of use, and methods of making” (priority 2004, dated 2014)
